Laboratory results published in the supplement of paper PMC8617591.

Legend:
[1] = test system: Mycobacterium tuberculosis Erdman (autoluminescent); assay: total FIC50 (Loewe) at 50% inhibition, three-drug combination (log2); higher = more antagonistic
Procedure: (§1)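 DiaMOND equipotent three-drug combination dose responses (10 doses, 1.5- or 2-fold spacing, centred on IC90) against autoluminescent M. tuberculosis Erdman in 8 in vitro models. Read-out is OD600, or luminescence for the intracellular and dormancy models, normalised to untreated wells. Hill-fit Einf, AUC25 and GRinf are potency metrics; FIC50 and FIC90 are total Loewe fractional inhibitory concentrations as log2 (negative = synergy).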

[2] = test system: Mycobacterium tuberculosis Erdman (autoluminescent); assay: total FIC90 (Loewe) at 90% inhibition, three-drug combination (log2); higher = more antagonistic
Procedure: as §1

[3] = test system: Mycobacterium tuberculosis Erdman (autoluminescent); assay: Einf, fitted maximum growth inhibition of three-drug combination (fraction); higher = stronger maximal inhibition
Procedure: as §1

[4] = test system: Mycobacterium tuberculosis Erdman (autoluminescent); assay: AUC25, normalised area under dose response up to IC25 (three-drug combination) (fraction (0-1)); higher = more potent at low dose
Procedure: as §1

[5] = test system: Mycobacterium tuberculosis Erdman (autoluminescent); assay: GRinf, maximum normalised growth rate inhibition (three-drug combination) (unitless (-1 to 1)); higher = less effect (negative = killing)
Procedure: as §1

COc1nc2ccc(Br)cc2cc1[C@@H](c1ccccc1)[C@@](O)(CCN(C)C)c1cccc2ccccc12 [bedaquiline] + CC(C)/N=c1\cc2n(-c3ccc(Cl)cc3)c3ccccc3nc-2cc1Nc1ccc(Cl)cc1 [clofazimine] + O=[N+]([O-])c1cn2c(n1)OC[C@@H](OCc1ccc(OC(F)(F)F)cc1)C2 [pretomanid]
Conditions	AUC25, [4]	Einf, [3]	GRinf, [5]	total FIC50, [1]	total FIC90, [2]
in vitro model: acidic pH 5.7, time point: constant (~7 days, model-specific)	0.106	0.809	-0.477	0.502	–
in vitro model: acidic pH 5.7, time point: terminal (~4-5 doublings, model-specific)	0.0881	0.968	-0.411	0.438	0.703
in vitro model: intracellular J774, time point: constant = terminal	–	0.986	-0.307	–	0.235

Conditions	AUC25, [4]	Einf, [3]	GRinf, [5]	total FIC50, [1]	total FIC90, [2]
in vitro model: butyrate, time point: constant (~7 days, model-specific)	0.0748	0.948	-0.105	0.0794	-0.148
in vitro model: butyrate, time point: terminal (~4-5 doublings, model-specific)	0.0598	0.982	-0.123	0.0162	-0.232
in vitro model: cholesterol 0.05 mM, time point: constant (~7 days, model-specific)	0.101	0.724	-0.148	0.099	–
in vitro model: cholesterol 0.05 mM, time point: terminal (~4-5 doublings, model-specific)	0.111	0.938	-0.208	0.567	0.307
in vitro model: cholesterol-high 0.2 mM, time point: constant (~7 days, model-specific)	0.0786	0.94	-0.226	0.161	0.852
in vitro model: cholesterol-high 0.2 mM, time point: terminal (~4-5 doublings, model-specific)	0.0851	1	-0.559	0.209	0.0625
in vitro model: dormancy (butyrate + nitrate, low O2), time point: constant (~7 days, model-specific)	0.0645	0.942	0.201	-0.378	-1.22
in vitro model: dormancy (butyrate + nitrate, low O2), time point: terminal (~4-5 doublings, model-specific)	0.077	0.996	-0.219	-1.08	-1.15
in vitro model: standard 7H9 glycerol, time point: constant = terminal	0.0956	0.967	-0.0799	-0.29	-0.495
in vitro model: valerate, time point: constant (~7 days, model-specific)	0.119	0.91	-0.0979	0.482	-0.269
in vitro model: valerate, time point: terminal (~4-5 doublings, model-specific)	0.0785	0.954	-0.0498	0.323	0.514

COc1nc2ccc(Br)cc2cc1[C@@H](c1ccccc1)[C@@](O)(CCN(C)C)c1cccc2ccccc12 [bedaquiline] + CC[C@@H](CO)NCCN[C@@H](CC)CO [ethambutol] + CC(=O)NC[C@H]1CN(c2ccc(N3CCOCC3)c(F)c2)C(=O)O1 [linezolid]
Conditions	AUC25, [4]	Einf, [3]	GRinf, [5]	total FIC50, [1]	total FIC90, [2]
in vitro model: acidic pH 5.7, time point: constant (~7 days, model-specific)	0.0748	0.822	-0.403	-0.0157	–
in vitro model: acidic pH 5.7, time point: terminal (~4-5 doublings, model-specific)	0.0941	0.977	-0.395	0.509	0.711
in vitro model: intracellular J774, time point: constant = terminal	–	0.922	-0.379	–	0.819

Conditions	AUC25, [4]	Einf, [3]	GRinf, [5]	total FIC50, [1]	total FIC90, [2]
in vitro model: butyrate, time point: constant (~7 days, model-specific)	0.0774	0.931	-0.0747	0.429	–
in vitro model: butyrate, time point: terminal (~4-5 doublings, model-specific)	0.0539	0.964	-0.0521	0.371	-0.223
in vitro model: cholesterol 0.05 mM, time point: constant (~7 days, model-specific)	0.151	0.783	-0.458	0.52	–
in vitro model: cholesterol 0.05 mM, time point: terminal (~4-5 doublings, model-specific)	0.159	0.946	-0.703	8.47	–
in vitro model: cholesterol-high 0.2 mM, time point: constant (~7 days, model-specific)	0.0976	0.984	-1	0.98	–
in vitro model: cholesterol-high 0.2 mM, time point: terminal (~4-5 doublings, model-specific)	0.114	1	-0.946	0.45	1.37
in vitro model: dormancy (butyrate + nitrate, low O2), time point: constant (~7 days, model-specific)	0.124	0.886	0.486	1.37	–
in vitro model: dormancy (butyrate + nitrate, low O2), time point: terminal (~4-5 doublings, model-specific)	0.127	0.989	-0.414	0.241	0.872
in vitro model: standard 7H9 glycerol, time point: constant = terminal	0.0754	0.943	-0.0326	0.387	–
in vitro model: valerate, time point: constant (~7 days, model-specific)	0.106	0.915	-0.161	0.715	–
in vitro model: valerate, time point: terminal (~4-5 doublings, model-specific)	0.0559	0.954	-0.121	0.85	-0.19
